Source: US5216142A, “Anti-virals” (Efamol Holdings plc, priority 1989, dated 1993)
Values after ≈ are worked out from the molar mass of the structure shown. “Also recorded” adds a separate entry of the source. Like-named read-outs stand apart in the source and are kept apart here.

Legend:
[1] = test system: herpes simplex virus Type I; assay: Inactivation of virus (30 minutes incubation, plaque assay); type: cell-based, Type 1, Troisbel strain; details: for log reduction at 5 µg/mL: 5 mg/l; for Virus titre (inactivation of virus): 30 minutes, control 5.4 × 10^4 (GLA-alcohol), 4.5 × 10^4 (GLA-AZT)
Protocol: 1. A virus solution containing 2×10^5 pfu/ml is prepared in phosphate buffered saline (Dulbecco's A).
2. The compound to be tested is made up in Dulbecco's medium A in a suitable range of dilutions.
3. Equal volumes of the virus and drug solution are mixed together. Control solutions without drug are also used.
4. The virus and drug are incubated for an appropriate period of time, in this example, thirty minutes.
5. The numbers of active viral particles in the solution are assayed as in items 4 and 5 under A.
The results are shown below (Table 6). In the Table, the figures are concentrations of viral particles present after incubation of the virus for 30 minutes with solutions of the drugs.

[2] = test system: herpes simplex virus Type I (HSV I); assay: Inhibition of virus replication (plaque assay, BHK-21 cells); type: cell-based, Type 1, Troisbel strain; details: for log reduction at 0.1 µg/mL: 0.1 mg/l; for Inhibition of viral replication (in words): up to 100 mg/l
Protocol: 1. Mono-layers of baby hamster kidney cells (BHK-21) are prepared in Petri dishes containing ETC medium (Eagle's minimal essential medium +10% tryptose phosphate broth +10% new born calf serum).
2. After incubation the medium is poured off to leave the layer of cells attached to the Petri dish. A solution containing virus, specifically herpes simplex virus Type I (HSV I) for example, in ETC medium is then added to the dish and incubated with intermittent rocking for one hour to allow the virus to adsorb to the cells of the mono-layer. Unadsorbed virus is then removed by pouring off the virus-containing medium and washing twice with new sterile medium. Then new medium is added to each Petri dish. At this stage various concentrations of drug can be added to the medium.
3. […] First the dishes are frozen to -70° C. and thawed to disrupt the mono-layer and break up the cells. Then the medium and the disrupted cells are transferred to bijou bottles and sonicated to break down the cells completely and to release all the virus particles the cells contain. The sonicated medium is then diluted with fresh sterile ETC medium to give concentrations of the original Petri dish fluid of 10^-2, 10^-4, 10^-6 and 10^-8.
4. The number of virus particles (plaque forming units) in the dilutions is then assayed. A standard number of BHK cells (usually 8×10^6) is added to 2 ml of the diluted solutions and incubated for one hour, with cautious, gentle shaking, and 8 ml of Eagle's minimal essential medium +2% new born calf serum + carboxymethyl cellulose is then added to the cell suspension. This medium has gelling properties which prevent spreading of the virus through the medium and which encourage the formation of discrete plaques in cell mono-layers. The medium from each dilution is then dispensed into Petri dishes and incubated for two to three days.
5. The number of plaques formed is then counted and the amount of active virus expressed as the number of plaque forming units (pfus) as follows. The medium is poured off and the cell mono-layer is fixed using 10% formol saline and stained with dilute carbol fuchsin. The number of plaques in each Petri dish is counted. Based on the dilutions, the number of plaque forming virus particles in the original solutions is calculated.
In the Table, the figures are the concentration of viral particles in pfu/ml present in the cells + medium at the end of the replication stage (3).

[3] = test system: HTLV-IIIB; assay: Anti-HIV activity assay, HTLV-IIIB (MT-4 cells, MTT method); type: cell-based; details: for Selectivity index (SI): CD50/ED50, HTLV-IIIB; for EC50: Human immunodeficiency virus 1, MT4, 120 h, MT-4 cells, five days, HTLV-IIIB, read-out: ED50 (50% effective dose)
Protocol: (§1) Results in relation to HIV virus were obtained by the method of Pauwels et al, Journal of Virological Methods 20, 309 to 321 (1988), as follows:
(§2) MT-4 cells (2.5×10^4 /well) were infected with HIV (100 CCID50) and incubated in the presence of varying concentrations of the test compounds (added immediately after virus infection). After five days incubation at 37° C. in a CO2 incubator, the number of viable cells was assessed by the MTT (tetrazolium) method. Anti-viral activity and cytotoxicity of the compounds are expressed as ED50 (50% effective dose) and CD50 (50% cytotoxic dose), respectively. SI (selectivity index=CD50 /ED50.
(§3) These are given in Table 8 and Table 9 below in relation to HTLV-IIIB and LAV-2ROD viruses.

[4] = test system: LAV-2ROD; assay: Anti-HIV activity assay, LAV-2ROD (MT-4 cells, MTT method); type: cell-based; details: for Selectivity index (SI): CD50/ED50, LAV-2ROD; for EC50: MT4, 120 h, MT-4 cells, five days, LAV-2ROD, read-out: ED50 (50% effective dose)
Protocol: as §1, §2, §3

[5] = test system: MT-4 cells; assay: in vitro; type: cell-based; details: human, 120 h
Protocol: as §1, §2

[6] = in vitro; type: cell-based; details: human, mt-4 cells, CD50 (50% cytotoxic dose)
Protocol: as §1, §2

[7] = Human alphaherpesvirus 1, 0.5 h, 1 mg/l, read-out: Inactivation of virus (log10 reduction in virus titre)
[8] = Human alphaherpesvirus 1, 0.5 h, read-out: Inactivation of virus (log10 reduction in virus titre)
[9] = Human alphaherpesvirus 1, BHK-21, 24 h, 1 mg/l, read-out: Inhibition of viral replication (log10 reduction in virus titre)
[10] = Human alphaherpesvirus 1, BHK-21, 24 h, read-out: Inhibition of viral replication (log10 reduction in virus titre)

Row | SMILES | Virucidal activity / inactivation of herpes virus (in words) [1] | log reduction at 1 µg/mL [1, 7] | log reduction at 5 µg/mL [1, 8] | Inhibition of herpes virus replication (in words) [2] | log reduction at 1 µg/mL [2, 9] | Selectivity index (SI) [3] | EC50 [3] [µg/mL] | % in chloroform phase (partition co-efficients, water/chloroform) [%] | Selectivity index (SI) [4] | EC50 [4] [µg/mL] | CD50 (50% cytotoxic dose) [5] [µg/mL] | CC50 at 120 h [6] [µg/mL] | other results
1 | CCCCC/C=C\C/C=C\CCCCCCCC(=O)Nc1nc2c(ncn2COCCOC(=O)CCCCCCC/C=C\C/C=C\CCCCC)c(=O)[nH]1 [AK 11] | virucidal; also recorded: very effective | 0.15 | 1.55 | very effective | 1.69 | < 1 | > 40 | > 99 | < 1 | > 40 | 10.1674 | 13.1 (≈ 17.5 µM) | log reduction at 5 µg/mL ([2]; Human alphaherpesvirus 1, BHK-21, 24 h, 5 mg/l, read-out: Inhibition of viral replication (log10 reduction in virus titre)): 2.46
2 | CCCCC/C=C\C/C=C\CCCCCCCC(=O)OC[C@@H]1C=C[C@H](n2cc(C)c(=O)[nH]c2=O)O1 [AK 15] |  |  |  |  |  | 256 | 0.064 (≈ 0.132 µM) |  | 378 | 0.064 (≈ 0.132 µM) | 24.23 | 16.5 (≈ 33.9 µM) | 
3 | CCCCC/C=C\C/C=C\C/C=C\CCCCCO [GLA alcohol, reference compound] | able to inactivate the herpes simplex virus |  |  | no effect at all |  |  |  |  |  |  |  |  | Virus titre (inactivation of virus) ([1]; 5 μg/ml): 3.0 × 10^3; Virus titre (inactivation of virus) ([1]; 10 μg/ml): 2.2 × 10^2; Virus titre (inactivation of virus) ([1]; 25 μg/ml): < 1.0 × 10^2
4 | CCCCC/C=C\C/C=C\C/C=C\CCCCC(=O)OC[C@H]1O[C@@H]2C[C@H]1Oc1nc(=O)c(C)cn12 [AK 3, GLA - Anhydrothymidine] | virucidal | 2.7 |  |  |  | < 1 | > 40 | > 98 | < 1 | > 40 | 16.8593 | 17.7 (≈ 36.6 µM) | log reduction at 0.5 µg/mL ([1]; Human alphaherpesvirus 1, 0.5 h, 0.5 mg/l, read-out: Inactivation of virus (log10 reduction in virus titre)): 1.6; log reduction at 25 µg/mL ([2]; Human alphaherpesvirus 1, BHK-21, 24 h, 25 mg/l, read-out: Inhibition of viral replication (log10 reduction in virus titre)): 0.5; log reduction at 50 µg/mL ([2]; Human alphaherpesvirus 1, BHK-21, 24 h, 50 mg/l, read-out: Inhibition of viral replication (log10 reduction in virus titre)): 0.9; log reduction at 100 µg/mL ([2]; Human alphaherpesvirus 1, BHK-21, 24 h, 100 mg/l, read-out: Inhibition of viral replication (log10 reduction in virus titre)): 1.2
5 | CCCCC/C=C\C/C=C\CCCCCCCC(=O)O [LA, linoleic acid, reference compound] | active at concentrations comparable to GLA; also recorded: same effect in inactivating the herpes virus |  |  | completely unable to inhibit viral replication |  |  |  |  |  |  |  |  | 
6 | CCCCC/C=C\C/C=C\C/C=C\CCCCC(=O)OC[C@@H]1C=C[C@H](n2cc(C)c(=O)[nH]c2=O)O1 [AK 14] |  |  |  |  |  | 134 | 0.076 (≈ 0.157 µM) |  | 110 | 0.08 (≈ 0.165 µM) | 8.84 | 10.3 (≈ 21.2 µM) | 
7 | CCCCC/C=C\C/C=C\C/C=C\CCCCC(=O)Nc1nc2c(ncn2COCCOC(=O)CCCC/C=C\C/C=C\C/C=C\CCCCC)c(=O)[nH]1 [AK 10, digamma-linolenyl acyclovir] | virucidal; also recorded: very effective | 0.94 | 1.54 | very effective | 1.13 | < 1 | > 8 | > 99 | < 1 | > 40 |  |  | log reduction at 1 µg/mL ([1]; Human alphaherpesvirus 1, 0.5 h, 1 mg/liter solution, read-out: Inactivation of virus, log): 1; killing at 1 µg/mL ([1]; Human alphaherpesvirus 1, 0.5 h, 1 mg/liter solution, read-out: Inactivation of virus, percent): 90%; log reduction at 0.1 µg/mL [2, 10]: 0.45; log reduction at 0.5 µg/mL ([2]; Human alphaherpesvirus 1, BHK-21, 24 h, 0.5 mg/l, read-out: Inhibition of viral replication (log10 reduction in virus titre)): 0.86; log reduction at 1 µg/mL ([2]; Human alphaherpesvirus 1, BHK-21, 24 h, 1 mg/liter solution, read-out: Reduction of virus replication, log): 1; inhibition at 1 µg/mL ([2]; Human alphaherpesvirus 1, BHK-21, 24 h, 1 mg/liter solution, read-out: Reduction of virus replication, percent): 90%
8 | CCCCC/C=C\C/C=C\CCCCCCCC(=O)Nc1nc2c(ncn2COCCO)c(=O)[nH]1 [AK 13] | virucidal | 1.3 | 1.8 |  | 4.3 |  |  |  |  |  |  |  | log reduction at 0.1 µg/mL [2, 10]: 2.45
9 | Cc1cn([C@H]2C=C[C@@H](CO)O2)c(=O)[nH]c1=O [AK 16, dideoxy-didehydro thymidine, reference compound] |  |  |  |  |  | 574 | 0.077 (≈ 0.343 µM) |  | 1196 | 0.039 (≈ 0.174 µM) | 46.65 | 44.4 (≈ 198 µM) | 
10 | CCCCC/C=C\C/C=C\CCCCCCCC(=O)OC[C@H]1O[C@@H](n2cc(C)c(=O)[nH]c2=O)C[C@@H]1N=[N+]=[N-] [AK 2] | virucidal | 2.2 | 2.8 | to inhibit its replication |  | 26008 | 0.000365 (≈ 0.000689 µM) | > 99 | 7999 | 0.000744 (≈ 0.0014 µM) | 5.9512 | 9.49 (≈ 17.9 µM) | Virucidal activity / inactivation of herpes virus (in words) ([1]; listed as AZT-LA): able both to inactivate the herpes virus; Inhibition of viral replication (in words) [2]: no inhibition
11 | CCCCC/C=C\C/C=C\CCCCCCCC(=O)OC[C@H]1O[C@@H]2C[C@H]1Oc1nc(=O)c(C)cn12 [AK 4] | virucidal | 2.75 | 2.9 |  |  | < 1 | > 40 | > 99 | < 1 | > 40 | 17.4332 | 18.2 (≈ 37.3 µM) | Inhibition of viral replication (in words) [2]: no inhibition
12 | CCCCC/C=C\C/C=C\C/C=C\CCCCC(=O)Nc1nc2c(ncn2COCCO)c(=O)[nH]1 [AK 12] | virucidal | 0.6 | 1.4 |  | 3.9 |  |  |  |  |  |  |  | log reduction at 0.1 µg/mL [2, 10]: 1.9
